According to PMC4128255 (European journal of medicinal chemistry, 2014):
Values belong to the molecule of their own block, whether it stands above or below them. Ends that are not written are not given here. fluorescein = fluorescein label on the lysine ε-amino group

Tests used:
[1] = tested on: cyclin D1, cyclin E, Survivin, β-Actin, α-Tubulin expression in CRL-2813 melanoma cells; assay: Western blot of regulatory and housekeeping protein expression in CRL-2813 cells; type: cell-based, Human; conditions: 6 hrs
eIF4E (GST-eIF4E) = eIF4E (GST-eIF4E) (Homo sapiens, UniProt P06730); assay: Fluorescence polarization; type: binding; conditions: for loss in binding affinity: relative to 4EGI-1, FP; for FP ratio: Table 3, IC50 of [Z]-4EGI-1/IC50 of compound in the same plate
[2] = target: GST-eIF4E fusion protein (recombinant, E. coli-expressed) (not stated (human or mouse cDNA cloned)) (UniProt P06730); assay: fluorescence polarisation
GST-eIF4E fusion protein (recombinant, E. coli-expressed) (not stated (human or mouse cDNA cloned)), sequence (P06730 27-217 limits assumed): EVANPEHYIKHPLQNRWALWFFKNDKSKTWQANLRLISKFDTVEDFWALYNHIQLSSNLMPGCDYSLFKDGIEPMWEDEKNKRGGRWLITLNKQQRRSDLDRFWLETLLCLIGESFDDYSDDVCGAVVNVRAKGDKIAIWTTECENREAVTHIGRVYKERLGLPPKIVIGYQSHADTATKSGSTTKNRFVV

eIF4E (GST-eIF4E), sequence (P06730 27-217 limits assumed): as above

Molecule: O=C(O)/C(Cc1ccccc1[N+](=O)[O-])=N\Nc1nc(-c2ccc(O)cc2)cs1 [[Z]-12b, 2-(2-(4-(4-Hydroxyphenyl)thiazol-2-yl)hydrazono)-3-(2-nitrophenyl)propanoic acid]
- expression of housekeeping proteins β-Actin and α-Tubulin [1]: no effect
- expression of regulatory proteins cyclin D1, cyclin E, and Survivin [1]: no effect

Molecule: O=C(O)C(Cc1ccc(O)cc1)=NNc1nc(-c2ccc(Cl)c(Cl)c2)cs1 [Compound 10d, 2-(2-(4-(3,4-Dichlorophenyl)thiazol-2-yl)hydrazono)-3-(4-hydroxyphenyl)propanoic acid]
- loss in binding affinity (eIF4E (GST-eIF4E)): 30–40%

Molecule: O=C(O)C(Cc1ccc(C(F)(F)F)cc1)=NNc1nc(-c2ccc(Cl)c(Cl)c2)cs1 [Compound 10i, 2-(2-(4-(3,4-Dichlorophenyl)thiazol-2-yl)hydrazono)-3-(4-(trifluoromethyl)phenyl)propanoic acid]
- loss in binding affinity (eIF4E (GST-eIF4E)): 30–40%

Molecule: O=C(O)/C(Cc1ccccc1[N+](=O)[O-])=N\Nc1nc(-c2ccc(Cl)c(Cl)c2)cs1 [[Z]-4EGI-1, 2-(2-(4-(3,4-Dichlorophenyl)thiazol-2-yl)hydrazono)-3-(2-nitrophenyl)propanoic acid, reference compound]
- expression of housekeeping proteins β-Actin and α-Tubulin [1]: not affected
- expression of regulatory proteins cyclin D1, cyclin E, and Survivin [1]: markedly reduced

Molecule: 3-(4-Amino-3-nitrophenyl)-2-(2-(5-(3,4-dichlorophenyl)thiazol-2-yl)hydrazono)propanoic acid [[E]-11a]
- FP ratio (eIF4E (GST-eIF4E)): 1.0

The remaining lines, values ahead:

- FP ratio (eIF4E (GST-eIF4E)): 0.9
Molecule: 4-(2-Carboxy-2-(2-(5-(3,4-dichlorophenyl)thiazol-2-yl)hydrazono)ethyl)-3-nitrobenzoic acid [[Z]-11b]

- FP ratio (eIF4E (GST-eIF4E)): 1.1
Molecule: 2-(2-(5-(3,4-Dichlorophenyl)thiazol-2-yl)hydrazono)-3-(4-hydroxy-3-nitrophenyl)propanoic acid [[Z]-11c]

- FP ratio (eIF4E (GST-eIF4E)): 0.9
Molecule: 2-(2-(5-(3,4-Dichlorophenyl)thiazol-2-yl)hydrazono)-3-(4-hydroxy-3-nitrophenyl)propanoic acid [[E]-11c]

- FP ratio (eIF4E (GST-eIF4E)): 0.6
Molecule: 4-(2-Carboxy-2-(2-(5-(3,4-dichlorophenyl)thiazol-2-yl)hydrazono)ethyl)-3-nitrobenzoic acid [[E]-11b]

- Kd [2]: 3 µM
Molecule: KYTYDELFQLK(fluorescein)-OH [fluorescein labeled eIF4G-derived peptide …(ε-Flu)-OH]
